We go through 17 compounds from patent publication US20230117470A1, “SUBSTITUTED PYRAZOLE COMPOUNDS AS TOLL RECEPTOR INHIBITORS” (BRISTOL-MYERS SQUIBB COMPANY, priority 2019, published 2023).

For orientation: IC50 means the concentration that gives 50% inhibition. Read a low IC50 as inhibition by little substance.

What all share (format): cell-based
In one assay the target is T1, human TLR7 (Homo sapiens, UniProt Q9NYK1).
T1 construct: host or cells: HEK-Blue cells
T1 sequence (Q9NYK1 27-1049): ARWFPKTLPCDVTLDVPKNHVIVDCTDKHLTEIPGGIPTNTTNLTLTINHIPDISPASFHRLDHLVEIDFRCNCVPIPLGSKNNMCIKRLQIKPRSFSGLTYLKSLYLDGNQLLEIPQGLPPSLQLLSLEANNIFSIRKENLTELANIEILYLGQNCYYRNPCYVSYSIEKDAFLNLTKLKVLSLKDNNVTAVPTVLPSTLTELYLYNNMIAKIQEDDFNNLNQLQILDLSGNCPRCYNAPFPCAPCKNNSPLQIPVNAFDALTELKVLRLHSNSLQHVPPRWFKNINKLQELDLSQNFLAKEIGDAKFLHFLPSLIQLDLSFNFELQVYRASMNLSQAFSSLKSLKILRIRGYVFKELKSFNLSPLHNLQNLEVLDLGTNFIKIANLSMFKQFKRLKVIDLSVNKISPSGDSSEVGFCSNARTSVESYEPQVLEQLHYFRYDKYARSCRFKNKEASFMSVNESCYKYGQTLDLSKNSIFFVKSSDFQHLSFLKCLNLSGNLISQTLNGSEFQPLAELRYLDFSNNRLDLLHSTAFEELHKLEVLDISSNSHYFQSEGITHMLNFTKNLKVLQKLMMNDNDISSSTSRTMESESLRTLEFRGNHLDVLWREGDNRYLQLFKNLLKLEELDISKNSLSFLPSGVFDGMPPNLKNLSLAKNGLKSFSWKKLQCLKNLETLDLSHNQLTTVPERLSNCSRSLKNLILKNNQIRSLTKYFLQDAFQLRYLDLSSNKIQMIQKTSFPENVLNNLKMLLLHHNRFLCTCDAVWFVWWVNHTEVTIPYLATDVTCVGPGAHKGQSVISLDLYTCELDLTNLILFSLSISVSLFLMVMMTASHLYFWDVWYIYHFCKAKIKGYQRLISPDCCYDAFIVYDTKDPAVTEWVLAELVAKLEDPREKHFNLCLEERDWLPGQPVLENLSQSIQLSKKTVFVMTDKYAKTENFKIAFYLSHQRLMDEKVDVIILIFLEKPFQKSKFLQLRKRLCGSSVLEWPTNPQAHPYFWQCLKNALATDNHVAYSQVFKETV
Briefly: TLR7 inhibition reporter assay (HEK-Blue cells, SEAP reporter, gardiquimod stimulation). Particulars: HEK-Blue cells overexpressing human TLR7, SEAP reporter, gardiquimod 7.5 μM. How it is done:
(§1) TLR7/8/9 Inhibition Reporter Assays
(§2) HEK-Blue™-cells (Invivogen) overexpressing human TLR7, TLR8 or TLR9 receptors were used for screening inhibitors of these receptors using an inducible SEAP (secreted embryonic alkaline phosphatase) reporter gene under the control of the IFN-β minimal promoter fused to five NF-κB and AP-1-binding sites. Briefly, cells are seeded into Greiner 384 well plates (15000 cells per well for TLR7, 20,000 for TLR8 and 25,000 for TLR9) and then treated with test compounds in DMSO to yield a final dose response concentration range of 0.05 nM-50 μM. After a 30 minute compound pre-treatment at room temperature, the cells are then stimulated with a TLR7 ligand (gardiquimod at a final concentration of 7.5 μM), TLR8 ligand (R848 at a final concentration of 15.9 μM) or TLR9 ligand (ODN2006 at a final concentration of 5 nM) to activate NF-κB and AP-1 which induce the production of SLA After a 22 hour incubation at 37° C., […], SEAP levels are determined with the addition of HEK-Blue™ Detection reagent (Invivogen), a cell culture medium that allows for detection of SLAP, according to manufacturer's specifications. The percent inhibition is determined as the % reduction in the HEK-Blue signal present in wells treated with agonist plus DMSO alone compared to wells treated with a known inhibitor.
(In a reporter assay the amount or activity of a reporter protein is the signal.)

The target in a further assay is T2, human TLR9 (Homo sapiens, UniProt Q9NR96).
T2 construct: host or cells: HEK-Blue cells
T2 sequence (Q9NR96 26-1032): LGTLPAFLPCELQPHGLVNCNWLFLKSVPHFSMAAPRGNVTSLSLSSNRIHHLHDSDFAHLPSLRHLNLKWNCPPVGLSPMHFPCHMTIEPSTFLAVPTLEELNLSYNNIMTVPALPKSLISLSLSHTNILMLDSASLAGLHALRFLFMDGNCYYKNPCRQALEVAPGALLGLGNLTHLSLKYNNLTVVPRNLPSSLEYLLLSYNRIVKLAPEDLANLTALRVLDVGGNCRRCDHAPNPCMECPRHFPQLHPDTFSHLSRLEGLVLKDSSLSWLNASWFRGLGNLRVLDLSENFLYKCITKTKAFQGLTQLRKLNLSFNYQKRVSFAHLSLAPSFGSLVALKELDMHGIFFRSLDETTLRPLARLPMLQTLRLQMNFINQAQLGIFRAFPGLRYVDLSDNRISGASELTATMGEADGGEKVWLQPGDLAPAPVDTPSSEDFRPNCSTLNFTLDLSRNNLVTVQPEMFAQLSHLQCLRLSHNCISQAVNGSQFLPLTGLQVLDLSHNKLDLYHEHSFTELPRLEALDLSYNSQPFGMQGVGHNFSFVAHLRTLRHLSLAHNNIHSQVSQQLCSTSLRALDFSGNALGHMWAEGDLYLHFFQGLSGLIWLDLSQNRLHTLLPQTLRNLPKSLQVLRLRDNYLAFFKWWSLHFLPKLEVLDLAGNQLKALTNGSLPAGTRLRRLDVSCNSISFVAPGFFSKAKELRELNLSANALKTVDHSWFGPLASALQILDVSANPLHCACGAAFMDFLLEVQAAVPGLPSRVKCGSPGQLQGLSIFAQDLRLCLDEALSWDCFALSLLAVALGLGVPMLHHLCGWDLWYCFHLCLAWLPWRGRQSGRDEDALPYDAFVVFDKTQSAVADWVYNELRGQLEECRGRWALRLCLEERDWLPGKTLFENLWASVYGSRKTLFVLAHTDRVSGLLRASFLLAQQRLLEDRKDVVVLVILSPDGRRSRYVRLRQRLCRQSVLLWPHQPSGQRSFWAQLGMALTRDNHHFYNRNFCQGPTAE
Briefly: TLR9 inhibition reporter assay (HEK-Blue cells, SEAP reporter, ODN2006 stimulation). Particulars: HEK-Blue cells overexpressing human TLR9, SEAP reporter, ODN2006 5 nM. How it is done: as §1, §2

The target of a further assay is T3, human TLR8 (Homo sapiens, UniProt Q9NR97).
T3 construct: host or cells: HEK-Blue cells
T3 sequence (Q9NR97 27-1041): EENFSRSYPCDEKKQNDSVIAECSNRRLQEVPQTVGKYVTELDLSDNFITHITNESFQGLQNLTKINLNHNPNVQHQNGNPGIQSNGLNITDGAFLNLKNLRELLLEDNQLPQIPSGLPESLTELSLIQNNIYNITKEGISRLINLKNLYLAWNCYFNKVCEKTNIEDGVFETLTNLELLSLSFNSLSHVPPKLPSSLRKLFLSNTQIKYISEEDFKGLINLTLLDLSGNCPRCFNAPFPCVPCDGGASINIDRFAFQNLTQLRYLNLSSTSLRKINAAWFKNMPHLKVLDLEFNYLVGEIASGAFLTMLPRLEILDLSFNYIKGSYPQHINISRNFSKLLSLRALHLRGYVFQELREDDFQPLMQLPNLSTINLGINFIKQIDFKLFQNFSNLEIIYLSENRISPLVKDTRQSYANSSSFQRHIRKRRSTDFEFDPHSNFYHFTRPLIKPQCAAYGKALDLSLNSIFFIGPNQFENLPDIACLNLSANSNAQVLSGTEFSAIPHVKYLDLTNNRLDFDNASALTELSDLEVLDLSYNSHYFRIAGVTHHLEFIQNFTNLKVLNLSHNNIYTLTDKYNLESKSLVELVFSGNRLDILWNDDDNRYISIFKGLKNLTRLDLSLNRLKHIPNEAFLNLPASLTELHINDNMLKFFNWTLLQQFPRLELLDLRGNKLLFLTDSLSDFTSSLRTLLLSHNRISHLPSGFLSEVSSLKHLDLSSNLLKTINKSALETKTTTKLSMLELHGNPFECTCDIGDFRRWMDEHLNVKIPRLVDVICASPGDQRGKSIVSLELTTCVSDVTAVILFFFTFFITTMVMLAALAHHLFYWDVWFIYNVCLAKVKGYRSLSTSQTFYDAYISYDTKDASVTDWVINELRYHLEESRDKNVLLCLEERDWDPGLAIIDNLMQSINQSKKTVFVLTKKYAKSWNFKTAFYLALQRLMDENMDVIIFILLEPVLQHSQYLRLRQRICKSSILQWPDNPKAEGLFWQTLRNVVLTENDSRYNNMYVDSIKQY
Nature of the assay: TLR8 inhibition reporter assay (HEK-Blue cells, SEAP reporter, R848 stimulation). Particulars: HEK-Blue cells overexpressing human TLR8, SEAP reporter, R848 15.9 μM. As to the method: as §1, §2

As to `CNC1CCC(c2n[nH]c(-c3cc(C)c4ncnn4c3)c2C(C)C)CC1` (single isomer, unassigned) [Example 294], the IC50 against human TLR7 turned out to be 7.97 nM; on human TLR9, 8.99 µM; at human TLR8 it was 0.42 nM.
For `CNC1CCC(c2n[nH]c(-c3cc(C)c4ncnn4c3)c2C(C)C)CC1` (single isomer, unassigned) [Example 295] the same measures were 4.94 nM, 9.71 µM and 0.28 nM.
For `Cc1cc(-c2[nH]nc(C3CCC(N(C)C(=O)C4CN(C)C4)CC3)c2C(C)C)cn2ncnc12` (single isomer, unassigned) [Example 302] the same measures were 9.44 nM, above 50 µM and 14.2 nM.
In the case of `Cc1cc(-c2[nH]nc(C3CCC(N(C)C(=O)C4CN(C(C)C)C4)CC3)c2C(C)C)cn2ncnc12` (single isomer, unassigned) [Example 303], the IC50 worked out at 7.99 nM at human TLR7, 26.4 µM against human TLR9 and 0.93 nM at human TLR8.
With `Cc1cc(-c2[nH]nc(C3CCC(N(C)C(=O)C4CN(C(C)C)C4)CC3)c2C(C)C)cn2ncnc12` (single isomer, unassigned) [Example 304], the IC50 at human TLR7 amounted to 8.2 nM; at human TLR9 it was 35.6 µM; at human TLR8, 19.2 nM.
In the case of `CCN1CC(C(=O)N(C)C2CCC(c3n[nH]c(-c4cc(C)c5ncnn5c4)c3C(C)C)CC2)C1` (single isomer, unassigned) [Example 305], the IC50 was 311 nM against human TLR7, above 50 µM against human TLR9 and 70 nM against human TLR8.
On to `CCN1CC(C(=O)N(C)C2CCC(c3n[nH]c(-c4cc(C)c5ncnn5c4)c3C(C)C)CC2)C1` (single isomer, unassigned) [Example 306], for which the IC50 at human TLR7 was 148 nM; against human TLR9, above 50 µM; against human TLR8, 124 nM.
For `Cc1cc(-c2[nH]nc(C3CCC(N(C)C(=O)CN(C)C)CC3)c2C(C)C)cn2ncnc12` (single isomer, unassigned) [compound 297] the same measures were 2.25 nM, 8.91 µM and 0.27 nM.
`Cc1cc(-c2[nH]nc(C3CCC(N(C)CC(=O)N(C)C)CC3)c2C(C)C)cn2ncnc12` (single isomer, unassigned) [compound 299]: the values for the IC50 against human TLR7, on human TLR9 and on human TLR8 were 1.42 nM, 12.7 µM and 0.72 nM, respectively.
`Cc1cc(-c2[nH]nc(C(=O)NC3CCN(C(=O)OC(C)(C)C)CC3)c2C(C)C)cn2ncnc12` [Example 1, tert-butyl 4-(4-isopropyl-5-(8-methyl-[1,2,4]triazolo[1,5-a]pyridin-6-yl)-1H-pyrazole-3-carboxamido)piperidine-1-carboxylate]: the IC50 at human TLR7 was determined as 2.01 nM; against human TLR9, 0.76 µM; against human TLR8 it was 8.14 nM.
As for `Cc1cc(-c2[nH]nc(C(=O)NC3CCN(C(C)C)CC3)c2C(C)C)cn2ncnc12` [Example 2], the IC50 against human TLR7 came to 2.27 nM; against human TLR9 it was 6.56 µM; against human TLR8, 5.82 nM.
For `Cc1cc(-c2[nH]nc(C(=O)NCCN3CCOCC3)c2C(C)C)cn2ncnc12` [Example 3], the IC50 at human TLR7 was 1.84 nM; against human TLR9, 18.5 µM; at human TLR8, 3.05 nM.
Turning to `Cc1cc(-c2[nH]nc(C(=O)NCCc3ccccn3)c2C(C)C)cn2ncnc12` [Example 4], the IC50 is 5.52 nM against human TLR7, 0.287 µM against human TLR9 and 33.9 nM on human TLR8.
Take `Cc1cc(-c2[nH]nc(C(=O)N(C)C3CCN(C)CC3)c2C(C)C)cn2ncnc12` [Example 6]: the values for the IC50 on human TLR7, at human TLR9 and against human TLR8 were 2.05 nM, 1.1 µM and 20.9 nM, respectively.
The like results for `Cc1cc(-c2[nH]nc(C(=O)NC3CCC(N(C)C)CC3)c2C(C)C)cn2ncnc12` (stereo not drawn) [Example 7] were, in that order, 7.8 nM, 5.47 µM and 6.59 nM.
Consider `Cc1cc(-c2[nH]nc(C(=O)NC3CCN(C)CC3)c2C(C)C)cn2ncnc12` [Example 8], for which the IC50 against human TLR7 is 2.47 nM; at human TLR9 it was 30.9 µM; against human TLR8, 5.42 nM.
Take `COc1cc(-c2[nH]nc(C(=O)N(C)C3CCN(C)CC3)c2C(C)C)cn2ncnc12` [Example 9]: the results for the IC50 against human TLR7, against human TLR9 and against human TLR8 were above 3130 nM, 4.16 µM and above 3130 nM, respectively.
